Patent US8476454B2, “IDO inhibitors and methods of use” (Lankenau Institute for Medical Research, priority 2003, dated 2013)

Legend:
[1] = HPLC analysis of mouse serum for compound level; type: in vivo; conditions: 2×140 mg 1MT pellets implanted subcutaneously, 3 days, male FVB mice
Excerpt: Protein was removed by TCA precipitation.

allogenic conceptus = assay: allogeneic conceptus rejection in mice; type: in vivo, mouse; conditions: 20 mg/day from two time-release pellets; unpublished results
Method: (§1) The time-release pellets are composed of a copolymer which is inert and gradually dissolves and breaks down to a non-toxic substance that remains largely localized during the course of the experiment. […] Two pellets per mouse were implanted to deliver a total dose of 20 mg/day. Therefore, for a 25 g mouse the total dose is 800 mg/kg/day or 280 mg over a 14 day period. Steady-state levels were reached within 12-24 hours and are maintained throughout the entire period based on the manufacturer's specifications.

[2] = time-release pellets, manufacturer's specifications; cited from earlier work
[3] = tested on: tumor growth in a mouse model; conditions: Friberg et al. 2002; U.S. Pat. No. 6,482,416; cited from earlier work
IDO = conditions: cited from earlier work; for potency ranking as IDO inhibitor (literature): Peterson et al. 1993, 1994
[4] = tested on: established tumors in MMTVneu "oncomouse" model; assay: MMTVneu transgenic oncomouse model of breast cancer, change in tumor volume over two weeks; type: in vivo, mouse; conditions: for effect on tumor growth: two week course, 1MT 20 mg/day s.c. time-release pellets, cytotoxics i.v. at maximum-tolerated doses
Excerpt: The MMTVneu transgenic “oncomouse” model of breast cancer was used to measure the effects of IDO inhibitors and STIs on tumor pathophysiology. The MMTVneu transgenic mouse develops aggressive tumors of the mammary gland that resemble poorly differentiated human ductal carcinomas. In the MMTVneu mouse model, breast cancer is initiated by tissue-specific expression of a mutant form of the HER-2/Neu gene that is activated frequently in aggressive human breast ductal carcinomas. HER-2 is a member of the EGF-R family of cell surface growth factor receptors. Myc is an obligate downstream effector for HER-2/Neu to drive cancer. Female MMTVneu “oncomice” are mated twice to initiate expression from the mouse mammary tumor virus (wry) promoter which drives transcription of the Neu/HER2 oncogene in mammary tissue. Mammary tumors arise with a penetrance of >90% in this model system by 5 months of age. MMTVneu “oncomice” bearing similarly sized tumors of ˜150 mm^3 were randomly assigned to control or experimental treatment groups. Control mice were implanted with placebo time-release pellets (Innovative Research, Inc., Sarasota, Fla.).
as §1, with “period.” for “period. Steady-state levels were reached within 12-24 hours and are maintained throughout the entire period based on the manufacturer's specifications.”
Time-release pellets were introduced subcutaneously on the backs of mice anesthetized by intramuscular injection of ketamin/rompun. Blunt dissection with a hemostat is used to separate the skin from the underlying muscle to create a subcutaneous pocket. One or two biodegradable slow release pellets were implanted within this pocket, rather than directly under the incision in order to prevent mechanical stress and wound dehiscence. The incision was then closed with wound clips.
MMTVneu “oncomice” bearing similarly sized tumors of ˜150 mm^3 were randomly assigned to control or experimental treatment groups. Control mice were implanted with placebo time-release pellets (Innovative Research, Inc., Sarasota, Fla.).
The cytotoxic chemotherapeutic agents were prepared and delivered to the mice as follows. Paclitaxel was dissolved in equal volumes of absolute ethanol and the clinically-used solubilizing agent Cremophor® EL. The solution was sonicated up to 30 minutes and stored as a 20 mg/ml stock solution at 4° C. for up to one week. Before use, this solution was diluted further at 1:5 with sterile physiological saline. Paclitaxel formulated in this manner was administered to mice by a single bolus intravenous (i.v.) injection into the tail vein. Mouse tails can be warmed to facilitate identification and injection of the vein. […] The MTD of cisplatin (1 mg/kg) was obtained as a clinical preparation in saline and delivered as a bolus i.v. injection on the same schedule. Control treated mice received only the Cremophor° EL vehicle formulation without paclitaxel.
Statistical analysis of the tumors of MMTVneu mice after various treatments. Numbers are provided as percent change in tumor volume as compared to the tumor volume prior to treatment.

human IDO [5] = target: T1, human IDO (Homo sapiens, UniProt P14902); assay: IDO enzyme assay (kynurenine production), enzyme kinetics for Ki; type: biochemical
T1 sequence (P14902 whole entry): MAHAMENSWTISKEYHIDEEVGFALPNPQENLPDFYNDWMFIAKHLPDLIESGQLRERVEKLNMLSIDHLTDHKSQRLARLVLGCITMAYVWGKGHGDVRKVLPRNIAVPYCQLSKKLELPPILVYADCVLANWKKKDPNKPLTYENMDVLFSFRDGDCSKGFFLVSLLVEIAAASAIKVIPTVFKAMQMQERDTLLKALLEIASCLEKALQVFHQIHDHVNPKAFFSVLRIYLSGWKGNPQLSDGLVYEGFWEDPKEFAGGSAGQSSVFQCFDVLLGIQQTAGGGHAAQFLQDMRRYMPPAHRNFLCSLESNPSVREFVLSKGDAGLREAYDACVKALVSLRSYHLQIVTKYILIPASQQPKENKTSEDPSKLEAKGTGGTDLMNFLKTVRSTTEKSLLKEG
Method: Data were plotted and analyzed using the Prism4 software package (GraphPad).
This assay is also used to determine Ki values for specific compounds, which is important for the development of SAR (structure activity relationship) around the different compound series.
Kynurenine production can be measured at 1 hour. More extensive enzyme kinetic data can be collected for selected compounds of interest.

intracellular IDO = target: T2, intracellular IDO (Homo sapiens, UniProt P14902); assay: cell-based IDO inhibitor assay, COS-1 cells transiently transfected with IDO cDNA, dose escalation
T2 construct: expressed in transfected cells; host or cells: COS-1 cells, CMV promoter-driven plasmid, Lipofectamine 2000
T2 sequence (P14902 whole entry): as above
Method: COS-1 cells are transiently transfected with a CMV promoter-driven plasmid expressing IDO cDNA using Lipofectamine 2000 (Invitrogen) as recommended by the manufacturer. […] The following day the wells are washed and new media (phenol red free) containing 20 μg/ml tryptophan is added together with inhibitor.

human IDO [6] = target: T1, human IDO; assay: cell-based screen, 293/Phoenix cells transiently transfected with human IDO, kynurenine in media
[7] = target: T3, tryptophan 2,3-dioxygenase (TDO2) (Homo sapiens, UniProt P48775); assay: cell-based screen, 293/Phoenix cells transiently transfected with TDO (selectivity); conditions: IDO versus TDO2
T3 construct: expressed in transfected cells; host or cells: human 293/Phoenix cells
T3 sequence (P48775 whole entry): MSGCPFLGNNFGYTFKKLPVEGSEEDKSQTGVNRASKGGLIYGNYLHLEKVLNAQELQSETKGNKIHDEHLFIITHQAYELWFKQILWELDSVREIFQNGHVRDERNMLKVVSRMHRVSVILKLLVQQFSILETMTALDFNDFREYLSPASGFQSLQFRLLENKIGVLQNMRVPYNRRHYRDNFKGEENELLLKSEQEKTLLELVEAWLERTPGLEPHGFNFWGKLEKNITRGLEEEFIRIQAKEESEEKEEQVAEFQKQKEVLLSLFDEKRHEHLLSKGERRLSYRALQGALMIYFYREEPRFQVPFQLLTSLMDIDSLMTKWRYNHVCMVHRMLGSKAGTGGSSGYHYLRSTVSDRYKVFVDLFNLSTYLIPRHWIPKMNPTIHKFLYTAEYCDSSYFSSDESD
Method: FIGS. 27A-27C provide a chart of certain IDO inhibitors, their structures, and their ability to inhibit IDO and TDO activity at a concentration of 250 μM in a cell-based assay.
The candidate compounds were also screened in a cell-based assay (for similar assay see Munn et al. (1999) J. Exp. Med. 189:1363-1372). Briefly, human 293/Phoenix cells were transiently transfected with human IDO or TDO cDNA expression vectors. The candidate compounds were added to the transfected cells at various concentrations. Kynurenine was quantitated in tissue culture media using a fluorescence-based protocol.

[8] = compared to the tumor volume prior to treatment, two weeks

## Cn1cc(CC(N)C(=O)O)c2ccccc21 (racemic) [1MT, 1-methyl-DL-tryptophan]
[1]
  1MT level in serum: ~100 µM
Allogenic conceptus
  allogenic conceptus rejection: effective at eliciting allogenic conceptus rejection
[2]
  time to steady-state levels: 12 to 24 h
[3]
  effect on tumor growth (literature): only retarded and did not prevent tumor growth

## Nc1cc2ccccc2cc1C(=O)O [3-amino-2-naphthoic acid]
IDO
  potency ranking as IDO inhibitor (literature): most potent IDO inhibitor

## CCCCc1cc2c(cn1)[nH]c1ccccc12 [3-butyl-β-carboline]
IDO
  potency ranking as IDO inhibitor (literature): most active derivative

## CC[C@H](C)[C@@H](CO[C@@H](Cc1ccccc1)C(=O)N[C@@H](CCS(C)(=O)=O)C(=O)OC(C)C)NC[C@@H](N)CS [L-744,832]
[4]
  effect on tumor growth: retarded but did not block tumor growth

## CN1C(=O)C(Cc2c[nH]c3ccccc23)NC1=S (centres unmarked) [MTH-Trp, 3-(N-methyl-thiohydantoin)-indole]
Human IDO [5]; compared with 1MT
  potency of direct IDO enzyme inhibition relative to 1MT: about 3 fold
Human IDO [5]; human IDO, global nonlinear regression of enzyme kinetic data, read-out: Best fit values of Ki
  Ki: 11.4 µM
Intracellular IDO; COS-1 cells expressing IDO, 5 hours, 20 μg/ml tryptophan
  EC50: 12.9 µM
Intracellular IDO; compared with 1MT
  potency against intracellular IDO relative to 1MT: ~20 fold
Human IDO [6]; at a concentration of 250 μM, compared with 1MT
  inhibition of IDO activity relative to 1MT: 2.7 times
Human IDO [6]; cell-based screen
  potency ranking among screened compounds: most potent of these inhibitors
[7]
  selectivity over tryptophan 2,3-dioxygenase (TDO2): significant selectivity

## C=CCN1C(=O)C(Cc2c[nH]c3ccccc23)NC1=S (centres unmarked) [N-allyl, 3-(N-allyl-thiohydantoin)-indole]
[7]
  selectivity over tryptophan 2,3-dioxygenase (TDO2): significant selectivity

## O=C1C(Cc2c[nH]c3ccccc23)NC(=S)N1c1ccccc1 (centres unmarked) [N-phenyl, 3-(N-phenyl-thiohydantoin)-indole]
[7]
  selectivity over tryptophan 2,3-dioxygenase (TDO2): significant selectivity

## c1ccc2c(c1)[nH]c1sncc12 [brassilexin]
IDO; Peterson et al. 1993
  mode of IDO inhibition (literature): noncompetitive inhibitor of IDO

## N.N.[Cl][Pt][Cl] [cisplatin]
[4]; [8]
  Maximum percent change in tumor volume: 255.6%
  Mean percent change in tumor volume: 91.35%
  Median percent change in tumor volume: 40%
  Minimum percent change in tumor volume: −26.53%
[4]
  effect on tumor growth: retarded but did not block tumor growth

## CC(=O)O[C@H]1C(=O)[C@@]2(C)[C@H]([C@H](OC(=O)c3ccccc3)[C@]3(O)C[C@H](OC(=O)[C@H](O)[C@@H](NC(=O)c4ccccc4)c4ccccc4)C(C)=C1C3(C)C)[C@]1(OC(C)=O)CO[C@@H]1C[C@@H]2O [paclitaxel]
[4]; [8]
  25% Percentile percent change in tumor volume: 40.25%
  75% Percentile percent change in tumor volume: 247.6%
  Maximum percent change in tumor volume: 360.8%
  Mean percent change in tumor volume: 139.4%
  Median percent change in tumor volume: 130.4%
  Minimum percent change in tumor volume: 20%
[4]
  effect on tumor growth: retarded but did not block tumor growth
